Laboratory results from US10077261B2, “Imidazolin-5-one derivative useful as FASN inhibitors for the treatment of cancer” (Janssen Pharmaceutica NV, priority 2012, dated 2018).

Key:
[1] = target: T1, hFASN enzyme (full length) (Homo sapiens, UniProt P49327); assay: Fatty Acid Synthase (FASN) inhibition scintillation proximity assay; assay type: biochemical; conditions: for inhibition at 10 µM: read-out: Human FASN % inhibition @ 10 μM, 10 μM test compound; for IC50: read-out: Human FASN pIC50 (converted)
T1 construct: 10 μL hFASN enzyme (full length, 300 ng, purified in house); made in house
Procedure, shortened: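 Scintillation proximity format: in-house full-length enzyme, 300 ng per well, pH 7.5 phosphate/DTT buffer, ³H-acetyl-CoA and malonyl-CoA. Emission counted on LEADseeker at 610 nm at least 24 h after stopping.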

A2780 ovarian cells [2] = assay: A2780 ovarian cell proliferation assay in lipid reduced medium, with palmitate (MTT); assay type: cell-based; conditions: Homo sapiens, A2780, 96 h; read-out: pIC50 A2780 Ovarian Cell, With Palmitate (converted)
Procedure, shortened: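 In this palmitate-supplemented format, compound dilutions (30 μM down to 0.01 μM) are added to cells in lipid-reduced serum with 25 μM palmitate, 0.2% fatty-acid-free BSA and 0.25% ethanol. After four days (96 h) MTT absorbance at 544 nm is recorded and fitted by minimum sum of squares.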

A2780 ovarian cells [3] = assay: A2780 ovarian cell proliferation assay in lipid reduced medium, without palmitate (MTT); assay type: cell-based; conditions: Homo sapiens, A2780, 96 h; read-out: pIC50 A2780 Ovarian Cell, Without Palmitate (converted)
[4] = test system: LNCaP-Vancouver prostate cells; assay: In vitro LNCaP Vancouver prostate cell proliferation assay in lipid reduced medium; assay type: cell-based; conditions: read-out: pIC50 LNCaP_Vancouver prostate cell (converted)
[5] = test system: PC-3M-Luc-C6 prostate cells; assay: In vitro PC-3M-Luc-C6 prostate cell proliferation assay in lipid reduced medium; assay type: cell-based; conditions: 96 h, read-out: pIC50 PC-3M-Luc-C6 prostate cell (converted)
[6] = target: Fatty Acid Synthase Keto-reductase Domain (FASN KR) (Homo sapiens, UniProt P49327); assay: Fatty Acid Synthase keto-reductase domain (FASN KR) inhibition, NADPH oxidation at 340 nm
Sequence of Fatty Acid Synthase Keto-reductase Domain (FASN KR) (P49327 whole entry, the tested form may be a part): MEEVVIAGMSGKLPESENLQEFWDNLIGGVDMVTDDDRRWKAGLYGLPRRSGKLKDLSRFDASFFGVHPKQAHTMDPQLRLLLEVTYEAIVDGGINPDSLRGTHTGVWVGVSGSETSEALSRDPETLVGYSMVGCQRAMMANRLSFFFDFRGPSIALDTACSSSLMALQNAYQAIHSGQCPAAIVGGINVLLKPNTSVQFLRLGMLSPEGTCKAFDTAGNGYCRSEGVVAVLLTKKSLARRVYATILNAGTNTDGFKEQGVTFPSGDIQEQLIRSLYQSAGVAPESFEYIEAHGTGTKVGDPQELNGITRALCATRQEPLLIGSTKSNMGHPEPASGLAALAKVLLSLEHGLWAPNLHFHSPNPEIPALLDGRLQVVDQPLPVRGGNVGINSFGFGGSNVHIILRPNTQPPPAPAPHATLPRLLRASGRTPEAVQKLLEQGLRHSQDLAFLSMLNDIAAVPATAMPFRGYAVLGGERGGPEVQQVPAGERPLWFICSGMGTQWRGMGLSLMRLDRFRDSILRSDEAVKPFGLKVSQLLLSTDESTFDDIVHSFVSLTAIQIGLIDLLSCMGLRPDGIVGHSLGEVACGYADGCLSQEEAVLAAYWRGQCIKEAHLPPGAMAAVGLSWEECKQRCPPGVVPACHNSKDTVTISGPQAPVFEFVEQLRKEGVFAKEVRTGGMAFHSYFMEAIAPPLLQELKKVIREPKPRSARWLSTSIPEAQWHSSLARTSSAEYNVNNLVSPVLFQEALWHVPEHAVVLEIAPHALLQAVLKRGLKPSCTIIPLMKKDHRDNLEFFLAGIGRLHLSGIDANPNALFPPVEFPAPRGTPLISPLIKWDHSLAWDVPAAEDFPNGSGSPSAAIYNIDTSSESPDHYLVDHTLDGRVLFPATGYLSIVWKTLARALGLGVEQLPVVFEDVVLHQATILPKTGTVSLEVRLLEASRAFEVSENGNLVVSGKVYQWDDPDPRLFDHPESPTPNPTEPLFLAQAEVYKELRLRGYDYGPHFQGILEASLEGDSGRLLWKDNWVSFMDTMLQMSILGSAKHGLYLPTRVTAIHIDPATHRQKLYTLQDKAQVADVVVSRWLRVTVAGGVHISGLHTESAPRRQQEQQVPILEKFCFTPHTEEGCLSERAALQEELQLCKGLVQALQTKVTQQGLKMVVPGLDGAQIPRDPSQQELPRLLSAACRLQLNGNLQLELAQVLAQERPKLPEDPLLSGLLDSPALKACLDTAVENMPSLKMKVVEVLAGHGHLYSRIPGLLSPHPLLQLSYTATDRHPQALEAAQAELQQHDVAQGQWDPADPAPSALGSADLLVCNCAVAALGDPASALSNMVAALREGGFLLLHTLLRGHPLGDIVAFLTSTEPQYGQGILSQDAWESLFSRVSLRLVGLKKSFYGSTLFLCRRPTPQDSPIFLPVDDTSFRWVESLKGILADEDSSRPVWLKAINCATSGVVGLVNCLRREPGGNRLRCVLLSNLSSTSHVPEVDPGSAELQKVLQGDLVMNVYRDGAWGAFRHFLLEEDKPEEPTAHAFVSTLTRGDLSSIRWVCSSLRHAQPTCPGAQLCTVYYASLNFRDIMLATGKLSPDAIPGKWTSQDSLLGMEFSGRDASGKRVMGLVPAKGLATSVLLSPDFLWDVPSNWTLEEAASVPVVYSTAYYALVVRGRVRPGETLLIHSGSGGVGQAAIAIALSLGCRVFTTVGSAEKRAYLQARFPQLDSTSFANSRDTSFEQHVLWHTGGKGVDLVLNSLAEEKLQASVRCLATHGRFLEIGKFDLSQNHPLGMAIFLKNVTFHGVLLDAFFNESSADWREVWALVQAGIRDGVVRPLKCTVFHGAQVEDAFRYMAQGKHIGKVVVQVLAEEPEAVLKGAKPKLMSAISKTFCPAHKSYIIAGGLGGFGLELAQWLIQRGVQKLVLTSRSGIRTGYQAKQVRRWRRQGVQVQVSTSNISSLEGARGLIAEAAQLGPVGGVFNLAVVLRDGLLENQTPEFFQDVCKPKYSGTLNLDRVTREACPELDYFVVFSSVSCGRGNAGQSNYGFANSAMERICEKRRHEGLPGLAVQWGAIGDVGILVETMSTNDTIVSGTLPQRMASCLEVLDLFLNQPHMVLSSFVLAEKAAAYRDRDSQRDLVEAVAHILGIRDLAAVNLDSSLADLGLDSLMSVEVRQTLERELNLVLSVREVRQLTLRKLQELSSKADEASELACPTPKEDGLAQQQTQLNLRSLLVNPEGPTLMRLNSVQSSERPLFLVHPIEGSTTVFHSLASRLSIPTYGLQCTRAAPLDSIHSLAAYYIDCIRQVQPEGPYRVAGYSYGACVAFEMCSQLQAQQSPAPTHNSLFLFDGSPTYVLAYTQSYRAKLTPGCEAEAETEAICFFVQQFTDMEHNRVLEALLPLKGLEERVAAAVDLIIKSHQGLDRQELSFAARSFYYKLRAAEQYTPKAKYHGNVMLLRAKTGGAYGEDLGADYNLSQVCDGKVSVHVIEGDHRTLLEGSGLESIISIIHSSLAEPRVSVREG
Method: After 20 minutes incubation at room temperature the plate was measured again (T2).
The decrease in absorbance was calculated as (Absorbance before incubation T1)−(Absorbance following incubation T2).
A plot of Controlmin versus test compound concentration was fitted to a 4-parameter logistic curve using a non-linear least squares regression method.

T1 sequence (P49327 whole entry): as the sequence (P49327 whole entry, the tested form may be a part) above

inhibition at 10 µM [1] [%]	IC50 [1] [nM]	IC50 (A2780 ovarian cells [2]) [nM]	IC50 (A2780 ovarian cells [3]) [nM]	IC50 [4] [nM]	IC50 [5] [nM]	IC50 [6] [nM]	SMILES
99	191	~6030	~2510	~4470	~1740	355	Cc1sc2ccc(-c3ccc(C4=NC5(CCN(CCO)CC5)C(=O)N4C[C@@H]4CCN(C(=O)C5CC5)C4)cc3)cc2c1C [compound 742, 3-{[(3R)-1-(Cyclopropylcarbonyl)pyrrolidin-3-yl]methyl}-2-[4-(2,3-dimethyl-1-benzothiophen-5-yl)phenyl]-8-(2-hydroxyethyl)-1,3,8-triazaspiro[4.5]dec-1-en-4-one]
94	275	> 10000	~1860	~3890	~1660	1070	CS(=O)(=O)N1CCC2(CC1)N=C(c1ccc(-c3ccc4occc4c3)cc1)N(C[C@@H]1CCN(C(=O)C3CC3)C1)C2=O [compound 746, 2-[4-(1-Benzofuran-5-yl)phenyl]-3-{[(3R)-1-(cyclopropylcarbonyl)pyrrolidin-3-yl]methyl}-8-(methylsulfonyl)-1,3,8-triazaspiro[4.5]dec-1-en-4-one]
96	85.1	> 10000	~74.1	631	57.5	129	COCCN1CCC2(CC1)N=C(c1ccc(-c3ccc4[nH]ccc4c3)cc1)N(C[C@@H]1CCN(C(=O)C3CC3)C1)C2=O [compound 747, 3-{[(3R)-1-(Cyclopropylcarbonyl)pyrrolidin-3-yl]methyl}-2-[4-(1H-indol-5-yl)phenyl]-8-(2-methoxyethyl)-1,3,8-triazaspiro[4.5]dec-1-en-4-one]
99	355	> 10000	~224	3020	575	525	COCCN1CCC2(CC1)N=C(c1ccc(-c3ccc4[nH]ncc4c3)cc1)N(C[C@@H]1CCN(C(=O)C3CC3)C1)C2=O [compound 748, 3-{[(3R)-1-(Cyclopropylcarbonyl)pyrrolidin-3-yl]methyl}-2-[4-(1H-indazxol-5-yl)phenyl]-8-(2-methoxyethyl)-1,3,8-trisazaspiro[4.5]dec-1-en-4-one]
94	309	> 10000	676	3160	589	1150	COCCN1CCC2(CC1)N=C(c1ccc(-c3ccc4c(cnn4C)c3)cc1)N(C[C@@H]1CCN(C(=O)C3CC3)C1)C2=O [compound 750, 3-{[(3R)-1-(Cyclopropylcarbonyl)pyrrolidin-3-yl]methyl}-8-(2-methoxyethyl)-2-[4-(1-methyl-1H-indazol-5-yl)phenyl]-1,3,8-triazaspiro[4.5]dec-1-en-4-one]
91	776	> 10000	1620	3980	1910	1050	Cn1ncc2cc(-c3ccc(C4=NC5(CCN(C(=O)C(F)(F)F)CC5)C(=O)N4C[C@@H]4CCN(C(=O)C5CC5)C4)cc3)ccc21 [compound 752, 3-{[(3R)-1-(Cyclopropylcarbonyl)pyrrolidin-3-yl]methyl}-2-[4-(1-methyl-1H-indazol-5-yl)phenyl]-8-(trifluoroacetyl)-1,3,8-triazaspiro[4.5]dec-1-en-4-one]
95	316	> 10000	~977	3890	813	759	CS(=O)(=O)N1CCC2(CC1)N=C(c1ccc(-c3ccc4[nH]ccc4c3)cc1)N(CC1CN(C(=O)C3CC3)C1)C2=O [compound 762, 3-{[1-(Cyclopropylcarbonyl)azetidin-3-yl]methyl}-2-[4-(1H-indol-5-yl)phenyl]-8-(methylsulfonyl)-1,3,8-triazaspiro[4.5]dec-1-en-4-one]
96	363	> 10000	2190	8910	2090	832	O=C(C1CC1)N1CC(CN2C(=O)C3(CCN(C(=O)C(F)(F)F)CC3)N=C2c2ccc(-c3ccc4[nH]ccc4c3)cc2)C1 [compound 765, 3-{[1-(Cyclopropylcarbonyl)azetidin-3-yl]methyl}-2-[4-(1H-indol-5-yl)phenyl]-8-(trifluoroacetyl)-1,3,8-triazaspiro[4.5]dec-1-en-4-one]
99	23.4	~7940	2.69	24	4.79	42.7	N#Cc1ccc2cc(-c3ccc(C4=NC5(CC5)C(=O)N4CC4CN(C(=O)C5(O)CC5)C4)c(F)c3)ccc2c1 [compound 872, 6-(3-fluoro-4-(6-((1-(1-hydroxycyclopropanecarbonyl)azetidin-3-yl)methyl)-7-oxo-4,6-diazaspiro[2.4]hept-4-en-5-yl)phenyl)-2-naphthonitrile]
104	25.1	> 10000	13.5	87.1	10.5	28.8	O=C(C1CC1)N1CC[C@@H](CN2C(=O)C3(CCCC3)N=C2c2ccc(-c3ccc4cccnc4c3)cc2F)C1 [compound 875, (R)-3-((1-(cyclopropanecarbonyl)pyrrolidin-3-yl)methyl)-2-(2-fluoro-4-(quinolin-7-yl)phenyl)-1,3-diazaspiro[4.4]non-1-en-4-one]
105	30.9	> 10000	229	617	120	36.3	O=C(C1CC1)N1CC[C@@H](CN2C(=O)C3(CCCC3)N=C2c2ccc(-c3ccc4sccc4c3)cc2F)C1 [compound 876]
103	33.9	> 10000	21.4	~407	45.7	74.1	O=C(C1CC1)N1CC[C@@H](CN2C(=O)C3(CCCC3)N=C2c2ccc(-c3ccc4[nH]cnc4c3)cc2F)C1 [compound 877, (R)-2-(4-(1H-benzo[d]imidazol-5-yl)-21-fluorophenyl)-3-((1-(cyclopropanecarbonyl)pyrrolidin-3-yl)methyl)-1,3-diazaspiro[4.4]non-1-en-4-one]
104	41.7	> 10000	25.1	380	30.9	55	O=C(C1CC1)N1CC[C@@H](CN2C(=O)C3(CCCC3)N=C2c2ccc(-c3ccc4cn[nH]c4c3)cc2F)C1 [compound 879, (R)-3-((1-(cyclopropanecarbonyl)pyrrolidin-3-yl)methyl)-2-(2-fluoro-4-(1H-indazol-6-yl)phenyl)-1,3-diazaspiro[4.4]non-1-en-4-one]
101	79.4	> 10000	66.1	646	117	112	Cn1ncc2cc(-c3ccc(C4=NC5(CCCC5)C(=O)N4C[C@@H]4CCN(C(=O)C5CC5)C4)c(F)c3)ccc21 [compound 880, (R)-3-((1-(cyclopropanecarbonyl)pyrrolidin-3-yl)methyl)-2-(2-fluoro-4-(1-methyl-1H-indazol-5-yl)phenyl)-1,3-diazaspiro[4.4]non-1-en-4-one]
100	288	> 10000	~2140	3020	~1820	741	Cc1cc(-c2ccc3c(c2)CCO3)ccc1C1=NC2(CCCC2)C(=O)N1C[C@@H]1CCN(C(=O)C2CC2)C1 [compound 884, (R)-3-((1-(cyclopropanecarbonyl)pyrrolidin-3-yl)methyl)-2-(4-(2,3-dihydrobenzofuran-5-yl)-2-methylphenyl)-1,3-diazaspiro[4.4]non-1-en-4-one]
98	309	> 10000	~2240	> 10000	~2630	490	O=C(C1CC1)N1CC[C@@H](CN2C(=O)C3(CCCC3)N=C2c2ccc(-c3ccc4[nH]c(=O)[nH]c4c3)cc2F)C1 [compound 885, (R)-5-(4-(3-((1-(cyclopropanecarbonyl)pyrrolidin-3-yl)methuyl)-4-oxo-1,3-diazaspiro[4.4]non-1-en-2-yl)-3-fluorophenyl)-1H-benzo[d]imidazol-2(3H)-one]
